Data reported in the supplement of paper PMC8671470.

What was measured:
Conditions in all cases: 72 h
SHI-1 [1] = assay: cell viability (% survival relative to DMSO control, bortezomib = 0%); higher = less cytotoxic
Summary of the method: (§1)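 Percent survival is reported as the mean of duplicate wells. Cells from 10 AML and 5 CML lines were plated in 384-well plates containing compounds at 1, 10, 100, 1000 or 10000 nM and kept for 72 h at 37 °C in 5% CO2. Readout used CellTiter-Glo luminescence, scaled so that vehicle equals 100% and a 10 µM positive control equals 0%.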

K-562 [2] = assay: as above
Summary of the method: as §1

BV-173 [3] = assay: as above
Summary of the method: as §1

KU-812 [4] = assay: as above
Summary of the method: as §1

Mono-Mac-6 [5] = assay: as above
Summary of the method: as §1

NOMO-1 [6] = assay: as above
Summary of the method: as §1

THP-1 [7] = assay: as above
Summary of the method: as §1

HEL [8] = assay: as above
Summary of the method: as §1

LAMA-84 [9] = assay: as above
Summary of the method: as §1

MV4-11 [10] = assay: as above
Summary of the method: as §1

HL-60 [11] = assay: as above
Summary of the method: as §1

ML-2 [12] = assay: as above
Summary of the method: as §1

SHI-1 [13] = system: SHI-1
Summary of the method: (§2)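 In 384-well plates holding acoustically pre-printed compounds at five tenfold doses from 1 to 10,000 nM, in duplicate, fifteen myeloid leukaemia cell lines were grown in RPMI 1640 for 72 h at 37 °C with 5% CO2. Luminescent ATP viability was scaled between vehicle and a positive control at 10 µM. The IC50 was then taken from log-logistic dose–response fits with four parameters.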

KCL-22 = system: KCL-22
Summary of the method: as §2

K-562 [14] = system: K-562
Summary of the method: as §2

BV-173 [15] = system: BV-173
Summary of the method: as §2

KU-812 [16] = system: KU-812
Summary of the method: as §2

Mono-Mac-6 [17] = system: Mono-Mac-6
Summary of the method: as §2

NOMO-1 [18] = system: NOMO-1
Summary of the method: as §2

THP-1 [19] = system: THP-1
Summary of the method: as §2

HEL [20] = system: HEL
Summary of the method: as §2

LAMA-84 [21] = system: LAMA-84
Summary of the method: as §2

MV4-11 [22] = system: MV4-11
Summary of the method: as §2

MOLM-13 = system: MOLM-13
Summary of the method: as §2

KG-1 = system: KG-1
Summary of the method: as §2

HL-60 [23] = system: HL-60
Summary of the method: as §2

ML-2 [24] = system: ML-2
Summary of the method: as §2

HL-60 [25] = assay: cell viability (% survival relative to DMSO control); higher = less cytotoxic
Summary of the method: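 A rescreen of the full library used HL-60 cells in RPMI 1640 with 10% FBS on 384-well plates, run in duplicate at five tenfold concentrations (1–10,000 nM). Each screen included DMSO or 100 nM of one of three metabolic inhibitors and ran 72 h at 37 °C, 5% CO2. CellTiter-Glo viability was scaled between DMSO and 10 μM proteasome-inhibitor wells. Any area under the curve comes from four-parameter log-logistic fits with drc and PharmacoGx.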

CC1(C)[C@@H](O[C@H]2O[C@H](C(=O)O)[C@@H](O)[C@H](O)[C@H]2O[C@@H]2O[C@H](C(=O)O)[C@@H](O)[C@H](O)[C@H]2O)CC[C@]2(C)[C@H]3C(=O)C=C4[C@@H]5C[C@@](C)(C(=O)O)CC[C@]5(C)CC[C@@]4(C)[C@]3(C)CC[C@@H]12 [Glycyrrhizin]
cell viability [%]
Conditions	1 nM	10 nM	100 nM	1000 nM	10000 nM
BV-173 [3]	88.9	109	117	95.4	83.4
HEL [8]	99.8	108	107	109	84.8
HL-60 [11]	74.5	101	113	103	98.7
K-562 [2]	88.7	87.5	102	91.6	83.4
KU-812 [4]	87.4	92	107	99.6	84.3
LAMA-84 [9]	94.9	98.8	98.7	92.7	102
ML-2 [12]	101	110	104	114	99.5
MV4-11 [10]	89	108	108	85.3	102
Mono-Mac-6 [5]	94.1	103	104	94.8	89
NOMO-1 [6]	97.5	107	103	100	93.4
SHI-1 [1]	95.5	100	114	105	97.2
THP-1 [7]	92.1	103	95.8	98.4	96.2

Conditions	IC50 (cell viability) [µM]
BV-173 [15]	> 10
HEL [20]	> 10
HL-60 [23]	> 10
K-562 [14]	> 10
KCL-22	> 10
KG-1	> 10
KU-812 [16]	> 10
LAMA-84 [21]	> 10
ML-2 [24]	> 10
MOLM-13	> 10
MV4-11 [22]	> 10
Mono-Mac-6 [17]	> 10
NOMO-1 [18]	> 10
SHI-1 [13]	> 10
THP-1 [19]	> 10

cell viability [%], HL-60 [25]
Conditions	0.001 µM	0.01 µM	0.1 µM	1 µM	10 µM
co-treatment: AZD3965 100 nM	103	102	102	102.6	105
co-treatment: DMSO vehicle	102	103	95.5	98.7	101
co-treatment: GSK2194069 100 nM	102	100	105	110.4	104
co-treatment: pictilisib 100 nM	94	99.5	99.1	97.7	103

Nc1ccccc1C(=O)C[C@H](N)C(=O)O [L-Kynurenine]
cell viability [%]
Conditions	1 nM	10 nM	100 nM	1000 nM	10000 nM
BV-173 [3]	108	90.1	101	107	102
HEL [8]	117	80.1	102	104	92.7
HL-60 [11]	122	100	111	105	109
K-562 [2]	104	125	93.3	101	110
KU-812 [4]	98.8	90.5	99.5	106	99.2
LAMA-84 [9]	105	105	100	107	107
ML-2 [12]	107	103	103	100	98.7
MV4-11 [10]	108	103	93.1	101	89.4
Mono-Mac-6 [5]	101	91.7	102	93.8	95.9
NOMO-1 [6]	102	96.3	99	117	101
SHI-1 [1]	120	102	90.6	104	98.4
THP-1 [7]	97	93.1	101	102	102

Conditions	IC50 (cell viability) [µM]
BV-173 [15]	> 10
HEL [20]	> 10
HL-60 [23]	> 10
K-562 [14]	> 10
KCL-22	> 10
KG-1	> 10
KU-812 [16]	> 10
LAMA-84 [21]	> 10
ML-2 [24]	> 10
MOLM-13	> 10
MV4-11 [22]	> 10
Mono-Mac-6 [17]	> 10
NOMO-1 [18]	> 10
SHI-1 [13]	> 10
THP-1 [19]	> 10

cell viability [%], HL-60 [25]
Conditions	0.001 µM	0.01 µM	0.1 µM	1 µM	10 µM
co-treatment: AZD3965 100 nM	93.4	77.9	104	99.66	104
co-treatment: DMSO vehicle	92.2	96.4	100.5	99	106.8
co-treatment: GSK2194069 100 nM	96.6	94.9	101	98.86	100
co-treatment: pictilisib 100 nM	88.1	95.5	103	94.5	105
